Measured values published in patent publication US4136116A, “Tricyclic compounds” (Hoffmann-La Roche Inc., priority 1975, dated 1979).
Where a name gives a salt, the structure may show the parent alone.

Tested on: salivation in rabbits
Experiment: Salivation inhibition in rabbits (pilocarpine-increased salivation; anticholinergic action)
Assay type: in vivo
Conditions: light urethane narcosis, 3 mg/kg i.v., pilocarpine 5 mg/kg s.c.
Method: The low anticholinergic action can be shown by the lack of salivation inhibition in rabbits: The salivation in rabbits under light urethane narcosis was increased by pilocarpine injection (5 mg/kg. s.c.) and the amount of saliva was measured at 5-minute intervals. The inhibition of salivation is expressed as a percentage based upon the salivation of animals which only received pilocarpine.

Compound | % Inhibition of Salivation [%]
Cc1cccc2c1C=Cc1ccccc1C2=CCC[N+](C)(C)[O-] [1-methyl-5-(3-dimethylaminopropylidene)-5H-dibenzo[a,d]cycloheptene N-oxide hydrochloride] | 14
Cc1cccc2c1C=Cc1ccccc1C2=CCCN(C)C.Cl [1-methyl-5-(3-dimethylaminopropylidene)-5H-dibenzo[a,d]cycloheptene hydrochloride] | 60
CNCCC=C1c2ccccc2C=Cc2c(C)cccc21.Cl [1-methyl-5-(3-methylaminopropylidene)-5H-dibenzo[a,d]cycloheptene hydrochloride] | 60
Cc1cccc2c1CCc1ccccc1C2CCCN(C)C.Cl (stereo not shown) [1-methyl-10,11-dihydro-5-(3-dimethylaminopropyl)-5H-dibenzo[a,d]cycloheptene hydrochloride] | 50
Cc1cccc2c1CCc1ccccc1C2=CCCN(C)C.Cl [1-methyl-10,11-dihydro-5-(3-dimethylaminopropylidene)-5H-dibenzo[a,d]cycloheptene hydrochloride] | 50
CNCCCC1c2ccccc2CCc2c(C)cccc21.Cl (stereo not shown) [1-methyl-10,11-dihydro-5-(3-methylaminopropyl)-5H-dibenzo[a,d]cycloheptene hydrochloride] | 40
CNCCC=C1c2ccccc2CCc2c(C)cccc21.Cl [1-methyl-10,11-dihydro-5-(3-methylaminopropylidene)-5H-dibenzo [a,d]cycloheptene hydrochloride] | 50
